Counter-ions that a name gives are not always drawn.
The compounds below were run on MTT (mouse pheochromocytoma) (assay: IC50 of cell viability (ATP content)). Settings: (24 or 48 h).
Method in brief: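 After overnight culture at 37°C, 5% CO2 in white 1536-well plates, MTT mouse pheochromocytoma cells were given 23 nl of library compound in DMSO by pintool across 8 concentrations, spanning final 0.5 nM to 46 µM. Following 24 or 48 hrs, CellTiter-Glo luminescence was read after 15 minutes and normalised against positive-control (100%) and DMSO (0%) wells. A four-parameter logistic model provided the IC50.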

Row | Structure (SMILES) | IC50 of cell viability [µM]
1 | CCN[C@@]1(c2cccs2)CCCCC1=O [Tiletamine hydrochloride] | > 46
2 | Cc1ccc(O)c2ncccc12 [Tiliquinol] | > 46
3 | [2H]c1c([2H])c([2H])c2c([nH]c(=S)n2C2CCN(CCCC(=O)c3ccc(F)cc3)CC2)c1[2H] [Timiperone] | > 46
4 | CC[S+](=O)([O-])CCn1c([N+](=O)[O-])cnc1C [Tinidazole] | > 46
5 | CCOC(=O)Nc1ccc2c(c1)N(C(=O)CN(C)C)c1ccccc1CC2 [Tiracizine] | > 46
6 | O=C(O)Cc1cc(I)c(Oc2ccc(O)c(I)c2)c(I)c1 [Tiratricol, 3,3',5-triiodothyroacetic acid] | > 46
7 | CCCC[S+](=O)([O-])N[C@@H](Cc1ccc(OCCCCC2CCNCC2)cc1)C(=O)O.Cl.O [Tirofiban] | > 46
8 | Clc1ccc2nsnc2c1NC1=NCCN1 [Tizanidina] | > 46
9 | NC[C@@H]1O[C@@H](O[C@H]2[C@@H](O)[C@H](O[C@@H]3O[C@@H](CO)[C@H](O)[C@H](N)[C@@H]3O)[C@@H](N)C[C@H]2N)[C@H](N)C[C@@H]1O [Tobramycin] | > 46
10 | Cc1cccc(C)c1NC(=O)[C@H](C)N [Tocainide hydrochloride] | > 46
11 | Cc1c(C)c2c(c(C)c1OC(=O)CCC(=O)OCCO)CC[C@](C)(CCC[C@H](C)CCC[C@H](C)CCCC(C)C)O2 [Tocofersolan] | > 46
12 | CCOC(=O)NNc1nncc2ccccc12 [Todralazine hydrochloride] | > 46
13 | C1C\N=C(\CC2=CC=CC=C2)N1 [Tolazoline hydrochloride] | > 46
14 | Cc1ccc(C(=O)c2ccc(CC(=O)[O-])n2C)cc1.O.O.[Na+] [Tolmetin sodium salt dihydrate] | > 46
15 | Cc1cccc(N(C)C(=S)Oc2ccc3ccccc3c2)c1 [Tolnaftate] | > 46
16 | Cc1ccc(C(=O)[C@H](C)CN2CCCCC2)cc1 [Tolperisone HCl] | > 46
17 | COc1ccc2c(C(=S)N(C)CC(=O)O)cccc2c1C(F)(F)F [Tolrestat] | > 46
18 | Cc1ccc(O)c([C@H](CCN(C(C)C)C(C)C)c2ccccc2)c1 [Tolterodina] | > 46
19 | Cc1cc(-n2c(=O)[nH]c(=O)n(C)c2=O)ccc1Oc1ccc([S+](=O)([O-])C(F)(F)F)cc1 [Toltrazuril sulfone] | > 46
20 | Cc1ccccc1 [Toluene] | > 46
21 | Cc1cc2nc3ccc(N(C)C)cc3[s+]c2cc1N [Toluidine blue] | > 46
22 | CNCCC(Oc1ccccc1C)c1ccccc1 (stereo unspecified) [Tomoxetine] | > 46
23 | Cc1cccc(Nc2ccncc2[S+](=O)([O-])NC(=O)NC(C)C)c1 [Torsemide] | > 46
24 | CCCCNc1c(C(=O)OCC)c(C)nc2c1cnn2CC [Tracazolate hydrochloride] | > 46
25 | CCON=C(CC)C/1=C(O)/CC(CC1=O)C2=C(C)C=C(C)C=C2C (stereo unspecified) [Tralkoxydim] | > 46
26 | COc1cccc([C@@]2(O)CCCC[C@@H]2CN(C)C)c1 [Tramadolum] | > 46

Row | Structure (SMILES) | IC50 of cell viability [µM]
27 | CCOC(=O)[C@H](CCc1ccccc1)N[C@@H](C)C(=O)N1[C@H](C(=O)O)C[C@H]2CCCC[C@@H]21 [Trandolapril] | > 46
28 | NCC1CCC(C(=O)O)CC1 (stereo unspecified) [Tranexamic acid] | > 46
29 | COc1ccc(/C=C/C(=O)Nc2ccccc2C(=O)O)cc1OC [Tranilast] | > 46
30 | OCCOCCN1CCN(C(c2ccccc2)c2ccc(Cl)cc2)CC1 (stereo unspecified) [Tranquizine] | > 46
31 | N[C@@H]1C[C@H]1c1ccccc1 [Tranylcypromine hydrochloride] | > 46
32 | ClC1=CC(=CC=C1)N2CCN(CCCN3\N=C4\C=C/C=C\N4C3=O)CC2 [Trazodone hydrochloride] | > 46
33 | CC(=O)OCC(COC(C)=O)OC(C)=O [Triacetin] | > 46
34 | CC(C)(C)C(O)C(Oc1ccc(Cl)cc1)n1cncn1 (stereo unspecified) [Triadimenol] | > 46
35 | CC1(C)O[C@@H]2C[C@H]3[C@@H]4CCC/5=C/C(=O)/C=C\[C@]5(C)[C@@]4(F)[C@@H](O)C[C@]3(C)[C@@]2(O1)C(=O)CO [Triamcinolone acetonide] | > 46
36 | CC(=O)OCC(=O)[C@@]1(O)[C@@H](C[C@H]2[C@@H]3CC\C4=C\C(=O)\C=C/[C@]4(C)[C@@]3(F)[C@@H](O)C[C@]12C)OC(C)=O [Triamcinolone diacetate] | > 46
37 | CC(C)(C)CC(=O)OCC(=O)[C@@]12OC(C)(C)O[C@@H]1C[C@H]1[C@@H]3CCC4=CC(=O)C=C[C@]4(C)[C@@]3(F)[C@@H](O)C[C@]12C [Triamcinolone hexacetonide] | > 46
38 | Nc1nc(N)c2nc(-c3ccccc3)c(N)nc2n1 [Triamterene] | > 46
39 | CCO[C@H]1O[C@@H]([C@H](COCc2ccccc2)OCc2ccccc2)[C@@H](OCc2ccccc2)[C@@H]1O [Tribenoside] | > 46
40 | CCCCCCCC(=O)OCC(COC(=O)CCCCCCC)OC(=O)CCCCCCC [Tricaprylin] | > 46
41 | COP(=O)(OC)C(O)C(Cl)(Cl)Cl (stereo unspecified) [Trichlorfon] | > 46
42 | N[S+](=O)([O-])c1cc2c(cc1Cl)N[C@@H](C(Cl)Cl)N[S+]2(=O)[O-] [Trichlormethiazide] | > 46
43 | O=C(O)C(Cl)(Cl)Cl [Trichloroacetic acid] | > 46
44 | ClC=C(Cl)Cl [Trichloroethylene] | > 46
45 | O=C(O)COc1nc(Cl)c(Cl)cc1Cl [Triclopyr] | > 46
46 | Oc1cc(Cl)ccc1Oc1ccc(Cl)cc1Cl [Triclosan] | > 46
47 | NCCNCCNCCN [Triethylenetetramine] | > 46
48 | Cl.O=C(CCCN1CCC(O)(c2cccc(C(F)(F)F)c2)CC1)c1ccc(F)cc1 [Trifluperidol hydrochloride] | > 46
49 | O=c1[nH]c(=O)n(C2C[C@H](O)[C@@H](CO)O2)cc1C(F)(F)F (stereo partly specified) [Trifluridine] | > 46
50 | CC(=O)Oc1cc(C(F)(F)F)ccc1C(=O)O [Triflusal] | > 46
51 | NC(Cc1ccc(Oc2cc(I)c(O)c(I)c2)c(I)c1)C(=O)O (stereo unspecified) [Triiodothyronine, reverse] | > 46
52 | C[C@@H](CN(C)C)CN1c2ccccc2Sc2ccccc21.C[C@@H](CN(C)C)CN1c2ccccc2Sc2ccccc21.O=C(O)[C@@H](O)[C@@H](O)C(=O)O [Trimeprazine tartrate] | > 46

Row | Structure (SMILES) | IC50 of cell viability [µM]
53 | COc1ccc(CN2CCNCC2)c(OC)c1OC [Trimetazidine dihydrochloride] | > 46
54 | CN1C(=O)OC(C)(C)C1=O [Trimethadione] | > 46
55 | COc1cc(C(=O)NCc2ccc(OCCN(C)C)cc2)cc(OC)c1OC [Trimethobenzamide hydrochloride] | > 46
56 | COc1cc(Cc2cnc(N)nc2N)cc(OC)c1OC [Trimethoprim] | > 46
57 | COc1cc(C[C@H]2NCCc3cc(O)c(O)cc32)cc(OC)c1OC [Trimethoquinol] | > 46
58 | COc1cc(C(=O)N2CCOCC2)cc(OC)c1OC [Trimetozine] | > 46
59 | C[C@@H](CN(C)C)CN1c2ccccc2CCc2ccccc21 [Trimipramine maleate salt] | > 46
60 | CC1=CC2=C(O1)C(=C3OC(=O)\C=C(C)/C3=C2)C [Trioxsalen] | > 46
61 | CCCCCCCCCCCCCCCC(=O)OCC(COC(=O)CCCCCCCCCCCCCCC)OC(=O)CCCCCCCCCCCCCCC [Tripalmitin] | > 46
62 | CC1(C)CC/C(=C\c2ccc(Cl)cc2)C1(O)Cn1cncn1 (stereo unspecified) [Triticonazole] | > 46
63 | COc1cc(C(=S)N2CCOCC2)cc(OC)c1OC [Tritiozina] | > 46
64 | CC(C)(C)CC(C)(C)c1ccc(OCCO)cc1 [Triton X-100] | > 46
65 | Cc1c(C)c2c(c(C)c1O)CCC(C)(COc1ccc(CC3SC(=O)NC3=O)cc1)O2 (stereo unspecified) [Troglitazone] | > 46
66 | OCCN(CCO)CCO [Trolamine] | > 46
67 | CO[C@@H]1C[C@H](O[C@H]2[C@H](C)[C@H](O[C@@H]3O[C@@H](C)C[C@@H](N(C)C)[C@H]3OC(C)=O)[C@H](C)C[C@]3(CO3)C(=O)[C@H](C)[C@H](OC(C)=O)[C@H](C)[C@H](C)OC(=O)[C@@H]2C)O[C@H](C)[C@H]1OC(C)=O [Troleandomycin] | > 46
68 | N#CC(C#N)=Cc1ccc(O)c(O)c1 [Tyrphostin 23] | > 46
69 | N#CC(C#N)=Cc1cc(O)c(O)c(O)c1 [Tyrphostin 25] | > 46
70 | BrC1=C2N=CC=NC2=CC=C1N\C3=N\CCN3 [UK 14,304] | > 46
71 | Oc1ncc(N(CCCl)CCCl)c(O)n1 [URACIL MUSTARD] | > 46
72 | Oc1ccnc(O)n1 [URACIL] | > 46
73 | COC1=C(C=CC=C1)N2CCN(CCCN\C3=C\C(=O)N(C)C(=O)N3C)CC2 [URAPIDIL] | > 46
74 | CCOC(N)=O [URETHANE] | > 46
75 | Oc1nc(O)c2nc(O)[nH]c2n1.[NaH] [URIC ACID] | > 46
76 | COC1=C(OC)C(=O)C(C/C=C(\C)CC/C=C(\C)CC/C=C(\C)CC/C=C(\C)CC/C=C(\C)CC/C=C(\C)CC/C=C(\C)CC/C=C(\C)CC/C=C(\C)CCC=C(C)C)=C(C)C1=O [Ubidecarenone] | > 46

From the supplement of paper PMC3974653
